Data reported in ChEMBL document CHEMBL1147434, “Synthesis and biological results of the technetium-99m-labeled 4-nitroimidazole for imaging tumor hypoxia” (Bioorg Med Chem Lett, 2004).

Legend:
Format in all cases: ADME, organism-based
[1] = tested on: Mus musculus; experiment: In vivo biodistribution of radiolabeled [99mTc]-N4IPA in mice lung bearing S180 tumor cell line for 1 hour; details: ccrf s-180, 1 h
[2] = tested on: Mus musculus; experiment: In vivo biodistribution of radiolabeled [99mTc]-N4IPA in mice tumor/lung bearing S180 tumor cell line for 8 hours; details: ccrf s-180, 8 h
[3] = tested on: Mus musculus; experiment: In vivo biodistribution of radiolabeled [99mTc]N4IPA in mice heart bearing S180 tumor cell line for 2 hours; details: ccrf s-180, 2 h
[4] = tested on: Mus musculus; experiment: In vivo biodistribution of radiolabeled [99mTc]-N4IPA in mice blood bearing S180 tumor cell line for 30 minutes; details: ccrf s-180, 0.5 h
[5] = tested on: Mus musculus; experiment: In vivo biodistribution of radiolabeled [99mTc]-N4IPA in mice tumor/liver bearing S180 tumor cell line for 4 hours; details: ccrf s-180, 4 h
[6] = tested on: Mus musculus; experiment: In vivo biodistribution of radiolabeled [99mTc]-N4IPA in mice kidney bearing S180 tumor cell line for 8 hours; details: ccrf s-180, 8 h
[7] = tested on: Mus musculus; experiment: In vivo biodistribution of radiolabeled [99mTc]N4IPA in mice tumor/blood bearing S180 tumor cell line for 8 hours; details: ccrf s-180, 8 h
[8] = tested on: Mus musculus; experiment: In vivo biodistribution of radiolabeled [99mTc]-N4IPA in mice blood bearing S180 tumor cell line for 2 hours; details: ccrf s-180, 2 h
[9] = tested on: Mus musculus; experiment: In vivo biodistribution of radiolabeled [99mTc]N4IPA in mice tumor/lung bearing S180 tumor cell line for 2 hours; details: ccrf s-180, 2 h
[10] = tested on: Mus musculus; experiment: In vivo biodistribution of radiolabeled [99mTc]-N4IPA in mice tumor bearing S180 tumor cell line for 1 hour; details: ccrf s-180, 1 h
[11] = tested on: Mus musculus; experiment: In vivo biodistribution of radiolabeled [99mTc]N4IPA in mice heart bearing S180 tumor cell line for 4 hours; details: ccrf s-180, 4 h
[12] = tested on: Mus musculus; experiment: In vivo biodistribution of radiolabeled [99mTc]-N4IPA in mice spleen bearing S180 tumor cell line for 8 hours; details: ccrf s-180, 8 h
[13] = tested on: Mus musculus; experiment: In vivo biodistribution of radiolabeled [99mTc]N4IPA in mice muscle bearing S180 tumor cell line for 2 hours; details: ccrf s-180, 2 h
[14] = tested on: Mus musculus; experiment: In vivo biodistribution of radiolabeled [99mTc]-N4IPA in mice tumor/heart bearing S180 tumor cell line for 8 hours; details: ccrf s-180, 8 h
[15] = tested on: Mus musculus; experiment: In vivo biodistribution of radiolabeled [99mTc]-N4IPA in mice tumor/lung bearing S180 tumor cell line for 1 hour; details: ccrf s-180, 1 h
[16] = tested on: Mus musculus; experiment: In vivo biodistribution of radiolabeled [99mTc]N4IPA in mice liver bearing S180 tumor cell line for 8 hours; details: ccrf s-180, 8 h
[17] = tested on: Mus musculus; experiment: In vivo biodistribution of radiolabeled [99mTc]-N4IPA in mice blood bearing S180 tumor cell line for 4 hours; details: ccrf s-180, 4 h
[18] = tested on: Mus musculus; experiment: In vivo biodistribution of radiolabeled [99mTc]-N4IPA in mice tumor/muscle bearing S180 tumor cell line for 2 hours; details: ccrf s-180, 2 h
[19] = tested on: Mus musculus; experiment: In vivo biodistribution of radiolabeled [99mTc]N4IPA in mice kidney bearing S180 tumor cell line for 2 hours; details: ccrf s-180, 2 h
[20] = tested on: Mus musculus; experiment: In vivo biodistribution of radiolabeled [99mTc]-N4IPA in mice muscle bearing S180 tumor cell line for 30 minutes; details: ccrf s-180, 0.5 h
[21] = tested on: Mus musculus; experiment: In vivo biodistribution of radiolabeled [99mTc]-N4IPA in mice tumor/muscle bearing S180 tumor cell line for 4 hours; details: ccrf s-180, 4 h
[22] = tested on: Mus musculus; experiment: In vivo biodistribution of radiolabeled [99mTc]-N4IPA in mice tumor bearing S180 tumor cell line for 4 hours; details: ccrf s-180, 4 h
[23] = tested on: Mus musculus; experiment: In vivo biodistribution of radiolabeled [99mTc]N4IPA in mice spleen bearing S180 tumor cell line for 1 hour; details: ccrf s-180, 1 h
[24] = tested on: Mus musculus; experiment: In vivo biodistribution of radiolabeled [99mTc]-N4IPA in mice tumor/liver bearing S180 tumor cell line for 1 hour; details: ccrf s-180, 1 h
[25] = tested on: Mus musculus; experiment: In vivo biodistribution of radiolabeled [99mTc]N4IPA in mice tumor/blood bearing S180 tumor cell line for 2 hours; details: ccrf s-180, 2 h
[26] = tested on: Mus musculus; experiment: In vivo biodistribution of radiolabeled [99mTc]N4IPA in mice tumor/muscle bearing S180 tumor cell line for 1 hour; details: ccrf s-180, 1 h
[27] = tested on: Mus musculus; experiment: In vivo biodistribution of radiolabeled [99mTc]-N4IPA in mice spleen bearing S180 tumor cell line for 4 hours; details: ccrf s-180, 4 h
[28] = tested on: Mus musculus; experiment: In vivo biodistribution of radiolabeled [99mTc]N4IPA in mice heart bearing S180 tumor cell line for 8 hours; details: ccrf s-180, 8 h
[29] = tested on: Mus musculus; experiment: In vivo biodistribution of radiolabeled [99mTc]-N4IPA in mice spleen bearing S180 tumor cell line for 30 minutes; details: ccrf s-180, 0.5 h
[30] = tested on: Mus musculus; experiment: In vivo biodistribution of radiolabeled [99mTc]-N4IPA in mice blood bearing S180 tumor cell line for 1 hour; details: ccrf s-180, 1 h
[31] = tested on: Mus musculus; experiment: In vivo biodistribution of radiolabeled [99mTc]N4IPA in mice brain bearing S180 tumor cell line for 8 hours; details: ccrf s-180, 8 h
[32] = tested on: Mus musculus; experiment: In vivo biodistribution of radiolabeled [99mTc]N4IPA in mice tumor/liver bearing S180 tumor cell line for 30 minutes; details: ccrf s-180, 0.5 h
[33] = tested on: Mus musculus; experiment: In vivo biodistribution of radiolabeled [99mTc]-N4IPA in mice kidney bearing S180 tumor cell line for 30 minutes; details: ccrf s-180, 0.5 h
[34] = tested on: Mus musculus; experiment: In vivo biodistribution of radiolabeled [99mTc]N4IPA in mice tumor/heart bearing S180 tumor cell line for 1 hour; details: ccrf s-180, 1 h
[35] = tested on: Mus musculus; experiment: In vivo biodistribution of radiolabeled [99mTc]-N4IPA in mice kidney bearing S180 tumor cell line for 4 hours; details: ccrf s-180, 4 h

N/C(CCn1cnc([N+](=O)[O-])c1)=N\O
Biodistribution [1]: 0.22 % g-1
Biodistribution [2]: 3.09 % g-1
Biodistribution [3]: 0.12 % g-1
Biodistribution [4]: 0.7 % g-1
Biodistribution [5]: 0.88 % g-1
Biodistribution [6]: 2.26 % g-1
Biodistribution [7]: 2.06 % g-1
Biodistribution [8]: 0.22 % g-1
Biodistribution [9]: 2.24 % g-1
Biodistribution [10]: 0.45 % g-1
Biodistribution [11]: 0.08 % g-1
Biodistribution [12]: 0.06 % g-1
Biodistribution [13]: 0.05 % g-1
Biodistribution [14]: 5.39 % g-1
Biodistribution [15]: 2.06 % g-1
Biodistribution [16]: 0.23 % g-1
Biodistribution [17]: 0.18 % g-1
Biodistribution [18]: 8.12 % g-1
Biodistribution [19]: 3.8 % g-1
Biodistribution [20]: 0.15 % g-1
Biodistribution [21]: 8.6 % g-1
Biodistribution [22]: 0.34 % g-1
Biodistribution [23]: 0.1 % g-1
Biodistribution [24]: 0.57 % g-1
Biodistribution [25]: 1.81 % g-1
Biodistribution [26]: 4.25 % g-1
Biodistribution [27]: 0.08 % g-1
Biodistribution [28]: 0.06 % g-1
Biodistribution [29]: 0.13 % g-1
Biodistribution [30]: 0.28 % g-1
Biodistribution [31]: 0.04 % g-1
Biodistribution [32]: 0.56 % g-1
Biodistribution [33]: 5.63 % g-1
Biodistribution [34]: 3.22 % g-1
Biodistribution [35]: 3.14 % g-1
